In this assay the target is O-GlcNAcase (Homo sapiens (Human), UniProt O60502). The assay is described as follows: Determination of KI values for inhibition of O-GlcNAcase activity (pNP-GlcNAc substrate, Dixon plots). As to conditions: PBS pH 7.4, 0.5 mM pNP-GlcNAc, 37° C., linear regression of a Dixon plot. The format is biochemical. How it is done: Assay for Determination of […] for Inhibition of O-GlcNAcase Activity
Experimental Procedure for Kinetic Analyses:
Enzymatic reactions are carried out in PBS buffer (pH 7.4) using pNP-GlcNAc as a substrate (0.5 mM) and monitored continuously at 37° C. at 400 nm using a Cary 3E UV-VIS spectrophotometer equipped with a Peltier temperature controller. Reactions are pre-heated in a 500 μL quartz cuvette for approximately 5 minutes followed by addition of 10 μL enzyme via syringe (final enzyme concentration 0.002 mg/mL). Reaction velocities are determined by linear regression of the linear region of the reaction progress curve between the first and third minutes. An inhibitor concentration range of ⅕ to 5 times K1 is used in each case. […] All K1 values are determined using linear regression of Dixon plots.

This note sets out measurements from patent publication US9079868B2, “Selective glycosidase inhibitors and uses thereof” (Simon Fraser University, priority 2008, dated 2015).

O-GlcNAcase, sequence (O60502 whole entry): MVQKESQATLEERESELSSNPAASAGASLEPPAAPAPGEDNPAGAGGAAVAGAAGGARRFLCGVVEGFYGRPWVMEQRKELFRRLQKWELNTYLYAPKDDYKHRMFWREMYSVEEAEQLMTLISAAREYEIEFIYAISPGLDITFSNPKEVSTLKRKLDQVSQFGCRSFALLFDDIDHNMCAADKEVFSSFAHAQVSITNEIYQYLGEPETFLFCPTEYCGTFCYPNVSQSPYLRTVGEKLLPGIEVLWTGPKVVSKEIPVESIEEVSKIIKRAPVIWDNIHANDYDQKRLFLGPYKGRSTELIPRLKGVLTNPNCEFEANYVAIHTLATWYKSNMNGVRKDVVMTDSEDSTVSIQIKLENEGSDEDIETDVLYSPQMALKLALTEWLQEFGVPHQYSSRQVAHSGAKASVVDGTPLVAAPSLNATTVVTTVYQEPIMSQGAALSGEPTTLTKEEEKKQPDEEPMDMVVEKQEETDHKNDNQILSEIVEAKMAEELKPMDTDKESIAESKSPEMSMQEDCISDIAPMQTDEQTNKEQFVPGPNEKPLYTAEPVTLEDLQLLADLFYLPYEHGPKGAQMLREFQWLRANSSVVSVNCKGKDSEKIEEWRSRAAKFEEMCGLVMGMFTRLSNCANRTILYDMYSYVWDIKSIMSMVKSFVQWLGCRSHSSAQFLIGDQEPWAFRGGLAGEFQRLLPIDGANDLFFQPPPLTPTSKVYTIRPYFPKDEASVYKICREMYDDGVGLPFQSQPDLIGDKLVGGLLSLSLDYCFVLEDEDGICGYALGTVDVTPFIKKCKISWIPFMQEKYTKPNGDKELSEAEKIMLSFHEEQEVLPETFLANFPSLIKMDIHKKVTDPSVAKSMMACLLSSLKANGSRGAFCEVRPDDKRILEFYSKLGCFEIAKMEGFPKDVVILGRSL

One may read the Ki as a measure of affinity in units of concentration, obtained from inhibition or displacement. With `CN(C)C1=N[C@@H]2[C@@H](O)[C@H](O)[C@@H](CO)[C@@H]2O1` [Compound 2, (3aR,4R,5R,6R,6aS)-2-(dimethylamino)-6-(hydroxymethyl)-4,5,6,6a-tetrahydro-3aH-cyclopenta[d]oxazole-4,5-diol], the affinity corresponds to a Ki of 40 µM.
